The subject of the assay is PRKACA-PRKAR2A interaction (SmBiT-PRKACA / LgBiT-PRKAR2A), protein kinase A. On the set-up: NanoLuc complementation counter-screen in cell extract, PRKACA with PRKAR2A, loss of luminescence, detects NanoLuc interference. The conditions noted are these: 0.5 h, 20 µM, inhibitor.
Where [1] appears, read: counter-screen for NanoLuc interference.
The mark [2] stands for this setting: counter-screen for NanoLuc interference, Inh (PKA).

Where a name gives a salt, the structure may show the parent alone. Read-outs that look alike come from different tables or passages of the source.

For the compound `CN(C)CCN1C(=O)c2cccc3cc(N)cc(c23)C1=O` [UM0141483:01, Amonafide], the “Inh (PKA)” value under setting [1] stood at 12.14%.
As to `CN1C(=O)c2sccc2N(C)c2nc(Nc3ccc(S(N)(=O)=O)cc3)ncc21` [UM0142130:01, XMU-MP-1], the “Inh (PKA)” value under setting [1] came out at 6.005%.
As to `CCOC(=O)[C@H](C)C[C@@H](Cc1ccc(-c2ccccc2)cc1)NC(=O)CCC(=O)O` [UM0142501:01, AHU-377 hemicalcium salt], the “Inh (PKA)” value under setting [2] is 0.8137%.
Consider `O=C1CCC(N2C(=O)c3ccccc3C2=O)C(=O)N1` (centres unmarked) [UM0141766:01, Thalidomide], for which the “Inh (PKA)” value under setting [1] is -0.2984%.
The same measure, in the same setting: to `COc1cc2ncnc(Nc3cccc(Cl)c3F)c2cc1OC(=O)N1CCN(C)C[C@H]1C` [UM0142700:01, AZD3759] belongs 7.884%; to `c1ccc2c(Cc3c[nH]c4ccccc34)c[nH]c2c1` [UM0119470:03, 3,3'-Diindolylmethane], 34.9%.
Still for that read-out and setting: to `COC(=O)C1=C(C#N)NC(C)=C(C(=O)OC(C)C)C1c1cccc([N+](=O)[O-])c1` (centres unmarked) [UM0142051:01, Nilvadipine] belongs 88.81%; to `N[C@@H]1C[C@H]1c1ccccc1` [UM0142789:01, Tranylcypromine hydrochloride], -0.9566%.
As for `COc1ccc(C2CNC(=O)C2)cc1OC1CCCC1` (centres unmarked) [UM0141786:01, Rolipram], the “Inh (PKA)” value under setting [1] was -0.06153%.
As for `CCCCCCCCCC(=O)N[C@@H](Cc1c[nH]c2ccccc12)C(=O)N[C@H](CC(N)=O)C(=O)N[C@@H](CC(=O)O)C(=O)N[C@@H]1C(=O)NCC(=O)N[C@@H](CCCN)C(=O)N[C@@H](CC(=O)O)C(=O)N[C@H](C)C(=O)N[C@@H](CC(=O)O)C(=O)NCC(=O)N[C@H](CO)C(=O)N[C@@H]([C@H](C)CC(=O)O)C(=O)N[C@@H](CC(=O)c2ccccc2N)C(=O)O[C@@H]1C` [UM0141387:01, Daptomycin], under setting [1], the “Inh (PKA)” value came out at 0.4906%.
For the compound `O=C(/C=C/c1ccc(O)c(O)c1)OCCc1ccccc1` [UM0133732:02, Caffeic Acid Phenethyl Ester], the “Inh (PKA)” value under setting [1] worked out at 43.72%.
`COc1ccc2[nH]c([S+]([O-])Cc3ncc(C)c(OC)c3C)nc2c1` (centres unmarked) [UM0048901:05, Omeprazole]: the “Inh (PKA)” value under setting [1] is recorded as -0.07908%.
Take `Cc1ccc(CNc2ncnc3ccc(-c4ccc(CO)o4)cc23)o1` [UM0142550:01, ML167]: the “Inh (PKA)” value under setting [1] was found to be 10.94%.
Take `FC(F)c1nc2ccccc2n1-c1nc(N2CCOCC2)nc(N2CCOCC2)n1` [UM0141969:01, ZSTK474]: under setting [1], the “Inh (PKA)” value was found to be 3.548%.
As for `NCCc1c[nH]cn1` [UM0119882:03, Histamine 2HCl], under setting [2], the “Inh (PKA)” value was determined as 0.5416%.
For the compound `CCC[C@H](NC(=O)[C@@H]1[C@H]2CCC[C@H]2CN1C(=O)[C@@H](NC(=O)[C@@H](NC(=O)c1cnccn1)C1CCCCC1)C(C)(C)C)C(=O)C(=O)NC1CC1` [UM0141671:01, Telaprevir (VX-950)], the “Inh (PKA)” value under setting [1] was found to be 3.048%.
On to `CC[C@H](c1ccc(O)cc1)[C@@H](CC)c1ccc(O)cc1` [UM0142283:01, Hexestrol], for which the “Inh (PKA)” value under setting [1] worked out at 49.6%.
For the compound `COc1ccc(CCC(=O)Nc2nc3ccc(Cl)cc3s2)cc1OC` [UM0141953:01, KY 02111], the “Inh (PKA)” value under setting [1] is reported as 9.326%.
The same measure, in the same setting: to `COc1ccc(CCc2nc3cc(-c4c(C)noc4C)ccc3n2C[C@H](C)N2CCOCC2)cc1Cl` [UM0141843:01, SGC-CBP30] belongs 18.44%; to `O=[N+]([O-])c1cccc2cn[nH]c12` [UM0120050:03, 7-Nitroindazole], 2.182%; to `OCCOCCN1CCN(C2=Nc3ccccc3Sc3ccccc32)CC1` [UM0142275:01, Quetiapine Fumarate], 6.997%.
With `CC(C)OC(=O)[C@H](C)N[P@](=O)(OC[C@H]1O[C@@H](n2ccc(=O)[nH]c2=O)[C@](C)(F)[C@@H]1O)Oc1ccccc1` [UM0141610:01, PSI-7977], under setting [1], the “Inh (PKA)” value stood at 2.04%.
Regarding `O=C1NC(=O)/C(=C/c2cccc(C(F)(F)F)c2)S1` [UM0141757:01, SMI-4a], under setting [1], the “Inh (PKA)” value is given as 63.38%.
As for `CN(C)Cc1ccc(-c2nc3cccc4c3n2CCNC4=O)cc1` [UM0141737:01, AG-14361], the “Inh (PKA)” value under setting [1] is 2.033%.
Turning to `CC(C)(C#N)c1cc(Cn2cncn2)cc(C(C)(C)C#N)c1` [UM0142230:01, Anastrozole], the “Inh (PKA)” value under setting [1] amounted to 5.113%.
For the compound `Cc1ccc2nc(NC(=O)CSc3nc4c(c(=O)n3-c3ccccc3)SCC4)sc2c1` [UM0141565:01, IWP-2], under setting [1], the “Inh (PKA)” value came to 27.82%.
Turning to `CCOc1ccc(Oc2ccc(OCc3cc(F)ccc3F)cc2)c(N)c1` [UM0141627:01, SEA0400], under setting [1], the “Inh (PKA)” value was 3.449%.
On to `O=C1NC(=O)C(c2cnc3ccccn23)=C1c1cn2c3c(cc(F)cc13)CN(C(=O)N1CCCCC1)CC2` [UM0141581:01, LY2090314], for which the “Inh (PKA)” value under setting [1] came out at 40.49%.
The same measure, in the same setting: to `N#C/C(=C(/N)Sc1ccc(N)cc1)c1ccccc1C(F)(F)F` [UM0127888:02, SL-327] belongs 49.94%; to `COc1cc2c(cc1Cc1cccc(Cl)c1F)c(=O)c(C(=O)O)cn2[C@H](CO)C(C)C` [UM0141691:01, Elvitegravir (GS-9137)], 4.883%.
For the compound `NC(=O)c1ccc(-c2nc(-c3ccccn3)c(-c3ccc4c(c3)OCO4)[nH]2)cc1` [UM0141970:01, SB 431542], the “Inh (PKA)” value under setting [1] came out at 22.36%.
On the same count and under the same terms, next, `Cc1[nH]c2ccccc2c1CCNCc1ccc(/C=C/C(=O)NO)cc1` [UM0135511:02, Panobinostat (LBH589)]: 3.589%; `NS(=O)(=O)NCCNc1nonc1C(=Nc1ccc(F)c(Br)c1)NO` [UM0141562:01, IDO inhibitor 1]: 11.46%; `CO/N=C(\C(=O)N[C@@H]1C(=O)N2C(C(=O)O)=C(COC(C)=O)CS[C@H]12)c1csc(N)n1` [UM0133637:02, Cefotaxime (sodium salt)]: 1.378%.
`C[C@@H]1O[C@@H](O[C@H]2C[C@@H](O)[C@]3(CO)[C@H]4[C@H](O)C[C@]5(C)[C@@H](C6=CC(=O)OC6)CC[C@]5(O)[C@@H]4CC[C@]3(O)C2)[C@H](O)[C@H](O)[C@H]1O` [UM0134215:02, Ouabain]: the “Inh (PKA)” value under setting [1] came out at 0.8032%.
For the compound `Cc1c[nH]c(/C=C2\C(=O)Nc3ccccc32)c1CCC(=O)O` [UM0141633:01, SU 5402], the “Inh (PKA)” value under setting [1] was determined as 46.56%.
`CC1=CC(=O)C(C(C)C)=C/C1=N/OC(=O)c1ccccc1C` [UM0141608:01, Poloxin]: the “Inh (PKA)” value under setting [1] stood at 31.48%.
The same measure, in the same setting: next, `CN(C)CCOc1ccc(/C(=C(/CCCl)c2ccccc2)c2ccccc2)cc1` [UM0133287:02, Toremifene Citrate]: 53.21%.
Turning to `N[C@@H](CC(=O)N1CCn2c(nnc2C(F)(F)F)C1)Cc1cc(F)c(F)cc1F` [UM0142834:01, Sitagliptin (phosphate)], the “Inh (PKA)” value under setting [2] is given as -0.1445%.
`CN(C)C/C=C/C(=O)Nc1cc2c(Nc3ccc(F)c(Cl)c3)ncnc2cc1O[C@H]1CCOC1` [UM0141512:02, Afatinib (BIBW2992)]: the “Inh (PKA)” value under setting [2] worked out at 5.289%.
With `COc1ccc(N(C(=O)Oc2c(C)cccc2C)c2ccnc(Nc3ccc(N4CCN(C)CC4)cc3)n2)c(OC)c1` [UM0142819:01, WH-4-023], the “Inh (PKA)” value is given as 37.82%.
Consider `Oc1cc(O)c(Cl)cn1` [UM0141798:01, Gimeracil], for which the “Inh (PKA)” value under setting [1] worked out at 0.03154%.
On the same count and under the same terms, to `O=C(Nc1cnn2ccc(N3CCC[C@@H]3c3cc(F)ccc3F)nc12)N1CC[C@H](O)C1` [UM0142757:01, LOXO-101] belongs 0.6062%.
As for `CC(C)(C(=O)NCC(F)(F)C(F)(F)F)C(=O)N[C@@H]1C(=O)Nc2ccccc2-c2ccccc21` [UM0141660:01, RO4929097], the “Inh (PKA)” value under setting [1] stood at 10.15%.
The same measure, in the same setting: to `S=c1[nH]cnc2nc[nH]c12` [UM0135507:02, Mercaptopurine (6-MP)] belongs 1.981%; to `N=C1CCCN1Cc1[nH]c(=O)[nH]c(=O)c1Cl` [UM0141639:01, Tipiracil hydrochloride], 0.165%.
For `CC(C(=O)O)C(=O)O` [UM0142795:01, Methylmalonate], the “Inh (PKA)” value was -2.942.
As for `CC1=C(C(=O)Nc2cc3cn[nH]c3cc2F)C(c2ccc(C(F)(F)F)cc2)CC(=O)N1` (centres unmarked) [UM0141898:01, GSK429286A], under setting [1], the “Inh (PKA)” value worked out at 8.844%.
With `O=C1CCc2ccc(OCCCCN3CCN(c4cccc(Cl)c4Cl)CC3)cc2N1` [UM0133361:02, Aripiprazole], the “Inh (PKA)” value under setting [1] was 19.63%.
Take `CN1CCN(CCCN2c3ccccc3Sc3ccc(C(F)(F)F)cc32)CC1` [UM0118432:03, Trifluoperazine 2HCl]: the “Inh (PKA)” value under setting [1] was 8.71%.
Still for that read-out and setting: to `COc1ccc2c(c1)[nH]c1c(C)nccc12` [UM0118303:03, Harmine hydrochloride] belongs 2.69%.
`C=C[C@@H]1C[C@]1(NC(=O)[C@@H]1C[C@@H]2CN1C(=O)[C@H](C(C)(C)C)NC(=O)O[C@@H]1C[C@H]1CCCCCc1nc3ccc(OC)cc3nc1O2)C(=O)NS(=O)(=O)C1CC1` [UM0141587:01, MK-5172]: the “Inh (PKA)” value under setting [1] is reported as 6.735%.
Consider `NC(=O)C1CCCc2c1[nH]c1ccc(Cl)cc21` (centres unmarked) [UM0128555:02, EX 527 (SEN0014196)], for which the “Inh (PKA)” value under setting [1] amounted to 3.362%.
As to `CC(C)c1ccccc1Cc1cc(C(=O)Nc2ccc(S(=O)(=O)c3ccccc3C(C)(C)C)cc2)c(O)c(O)c1O` [UM0141770:01, TW-37], under setting [1], the “Inh (PKA)” value is given as 2.732%.
On to `COc1cc2ncnc(Nc3ccc(O)c(Br)c3)c2cc1OC` [UM0127876:02, WHI-P154], for which the “Inh (PKA)” value under setting [1] is 9.14%.
Same read-out and setting: next, `Cc1ccc(=O)n(-c2ccccc2)c1` [UM0133133:02, Pirfenidone]: 0.9802%.
As for `Cc1c(Cn2c(C)nc3c(C(=O)O)cc(N4CCOCC4)cc32)cccc1C(F)(F)F` [UM0142436:01, GSK2636771], the “Inh (PKA)” value under setting [1] was -0.2162%.
Take `CC(C)C[C@H](NC(=O)[C@@H](O)[C@H](N)Cc1ccccc1)C(=O)O` [UM0141468:01, Bestatin]: under setting [1], the “Inh (PKA)” value worked out at 1.556%.
In the case of `CCCC(CCC)C(=O)O` [UM0128554:02, Valproic acid], the “Inh (PKA)” value under setting [2] was -0.4434%.

The record behind these values is paper PMC9995496, “A screen for MeCP2-TBL1 interaction inhibitors using a luminescence-based assay” (Scientific Reports, 2023).
